Source: PubChem BioAssay (NCI)
Values joined by “and” are separate entries in the source; they are usually repeats but may differ in a detail not shown here. Identical values can stand only once.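 How tested: cells in 96-well plates exposed to compound for 48 hours at five concentrations. GI50 is the concentration that inhibits growth by half. TGI: concentration producing complete growth inhibition.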

Tests used:
Assay in all cases: DTP human tumour cell line panel, 48 h
ACHN renal = system: ACHN renal
HS 578T breast = system: HS 578T breast
CCRF-CEM leukemia = system: CCRF-CEM leukemia
OVCAR-5 ovarian = system: OVCAR-5 ovarian
SK-MEL-28 melanoma = system: SK-MEL-28 melanoma
MCF7 breast = system: MCF7 breast
U251 CNS = system: U251 CNS
OVCAR-4 ovarian = system: OVCAR-4 ovarian
SF-539 CNS = system: SF-539 CNS
RPMI-8226 leukemia = system: RPMI-8226 leukemia

SMILES | GI50 (ACHN renal) | TGI (ACHN renal) | GI50 (HS 578T breast) | TGI (HS 578T breast) | GI50 (CCRF-CEM leukemia) | TGI (CCRF-CEM leukemia) | GI50 (OVCAR-5 ovarian) | TGI (OVCAR-5 ovarian) | GI50 (SK-MEL-28 melanoma) | TGI (SK-MEL-28 melanoma) | GI50 (MCF7 breast) | TGI (MCF7 breast) | GI50 (U251 CNS) | TGI (U251 CNS) | GI50 (OVCAR-4 ovarian) | TGI (OVCAR-4 ovarian) | GI50 (SF-539 CNS) | TGI (SF-539 CNS) | GI50 (RPMI-8226 leukemia) | TGI (RPMI-8226 leukemia)
COc1ccccc1S(=O)(=O)Nc1ccc2c(c1)CN(C)C(=O)N2 | 4.76 µM and 8.29 µM | > 100 µM | 2.53 µM and 2.23 µM | > 100 µM | 5.31 µM and 7.05 µM | > 100 µM | 9.5 µM and 11.7 µM | > 100 µM | 5.62 µM and 7.41 µM | > 100 µM | 1.87 µM and 1.48 µM | > 100 µM | 14.1 µM and 13.2 µM | > 100 µM | 3.4 µM and 4.28 µM | > 100 µM | 4.68 µM and 4.87 µM | 99.2 µM and > 100 µM | 2.16 µM and 1.89 µM | > 100 µM
CCOC(=O)Nc1ccc(-c2nc(-c3cccc(OC)c3)c(-c3ccnc(Br)c3)[nH]2)cc1 | 2.62 µM | > 100 µM | 1.68 µM | 6.15 µM | 2.75 µM | > 100 µM | 3.56 µM | > 100 µM | 2.8 µM | > 100 µM | 2.13 µM | 7.18 µM | 2.44 µM | > 100 µM |  |  | 1.76 µM | 4.56 µM | 0.794 µM | 3.49 µM
COC1=Nc2ccccc2S(=O)(=O)C=C1 |  | 8.83 µM |  | 53.4 µM | 2.85 µM | > 100 µM |  | 31.1 µM |  | 19.9 µM |  | 12.3 µM |  | 24.4 µM |  | 27.8 µM |  | 33.3 µM |  | 4.81 µM
CN(CCCl)c1ccc(/C=C/C2=[N+](C)c3ccccc3C2(C)C)cc1 | 2.19 µM | 10.6 µM | 1.53 µM | 32.1 µM | 0.151 µM | 5.75 µM | 3.71 µM | 17.1 µM | 0.685 µM | 15.6 µM | 0.516 µM | 10.6 µM | 0.253 µM | 11.2 µM | 1.62 µM | 10 µM | 2.11 µM | 13.8 µM | 0.331 µM | 2.46 µM
O=C(O)C1(Cc2cccc(Nc3nccs3)n2)CCC(Oc2cccc(Cl)c2F)CC1 (configuration not stated) | 14.4 µM | > 100 µM | 10.4 µM | 64 µM | 1.23 µM | > 55.1 µM | 13.8 µM | > 81.7 µM | 21.2 µM | > 65.2 µM | 0.329 µM | 50.5 µM | 24.4 µM | > 54.8 µM | 25.8 µM | > 100 µM | 6.73 µM | 24.4 µM |  | 
CNC1C(O)C(OC2C(N)CC(N)C(OC3OC(C(C)O)C(O)C(O)C3N)C2O)OCC1(C)O (configuration not stated) |  | > 100 µM |  | > 100 µM |  | > 100 µM |  | > 100 µM |  | > 100 µM |  | > 100 µM |  | > 100 µM |  | > 100 µM |  | > 100 µM |  | > 100 µM
COc1ccc(C(=O)COc2cccc(/C=C3\CSc4ccc(C)cc4C3=O)c2)cc1 | 25.7 µM | > 100 µM | 40.4 µM | > 100 µM | 2.76 µM | > 100 µM | 51.9 µM | > 100 µM | 17.4 µM | 45.5 µM | 2.64 µM | 31.3 µM | 7.38 µM | > 100 µM | 7.26 µM | > 100 µM | > 100 µM | > 100 µM | 1.89 µM | 6.47 µM
